# Data from paper PMC6862080, “Blood Compatibility—An Important but Often Forgotten Aspect of the Characterization of Antimicrobial Peptides for Clinical Application” (International Journal of Molecular Sciences, 2019).
# Peptide text beside a SMILES is read from it. * marks the point of attachment. Myristoyl = CCCCCCCCCCCCCC(=O)*; Lauroyl = CCCCCCCCCCCC(=O)*; Decanoyl = CCCCCCCCCC(=O)*; Octanoyl = CCCCCCCC(=O)*
# What was measured:
# E. coli (ATCC 11303) = test: microbe, parasite or virus in culture; type: cell-based; details: ATCC 11303, pH 7.4
# S. aureus (ATCC 12600) = test: microbe, parasite or virus in culture; type: cell-based; details: ATCC 12600, pH 7.4
# erythrocyte membranes [1] = test: Hemolysis in whole blood (Kahn method); type: cell-based, human
# Experimental: (§1) Hemolysis was tested with fresh citrate anticoagulated blood from healthy volunteers as well as with blood cells which were suspended in phosphate buffered saline (10 mM pH 7.4). Afterwards, 100 μL AMP solution was added to 500 μL blood to finally achieve AMP concentrations of 8, 32, and 128 μg/mL. As the negative and positive control, 100 μL PBS buffer and 100 μL 12% Triton-X buffer was added to 500 μL blood, respectively. After incubation on an orbital shaker for 60 min at 37 °C, the cells were removed by centrifugation and 100 μL of the supernatant were transferred to a 96 well microplate for hemolysis measurement. The hemolysis was calculated from the extinction at the wavelengths 562, 578, and 598 nm with a Synergy 2 microplate reader (BioTek, Winooski, VT, USA) according to the method published by Kahn.
# erythrocyte membranes [2] = test: Hemolysis in RBC suspended in PBS (Kahn method); type: cell-based, human; details: pH 7.4
# Experimental: as §1
# LPS from P. aeruginosa = test: Endotoxin inactivation in human serum, chromogenic LAL test (P. aeruginosa LPS); type: biochemical; details: 500 ng/mL peptide, n = 3; for Reduction of the endotoxin activity in serum vs positive control (in words): 5 ng/mL P. aeruginosa LPS
# Experimental: The LPS neutralization study in serum was conducted using a chromogenic Limulus Amebocyte Lysate (LAL) test (Charles River Laboratories, MA, USA). The LAL test is the most established method for quantifying LPS. This method uses amebocyte lysate from Limulus polyphemus, wherein the presence of LPS triggers a defense mechanism that induces coagulation. The LAL test is used successfully for detection of LPS in a wide variety of industrial, pharmaceutical, and research applications, such as water supplies, parenteral fluids, drugs for intravenous administration, and certain biologic fluids (e.g., cerebrospinal fluid). Therefore, serum, which was obtained from freshly drawn blood, was spiked with 500 ng/mL AMPs, PMB or LL-37 before adding 5 ng/mL LPS from E. coli or P. aeruginosa. As positive and negative controls, native serum with and without LPS was used, respectively. Endotoxin activity was measured using the LAL assay according to the manufacturer’s specifications.
# plasmatic coagulation = test: Clotting batch test in citrate plasma; type: biochemical, human
# Experimental: Since the acylated LF11-322 peptides cause plasmatic coagulation of citrate anticoagulated plasma, separate clotting experiments were performed with this peptide group. The aim was to check whether the coagulation activation is dependent on the AMP concentration and on the acyl chain length. […] Plasma without additives served as the negative control, whereas plasma spiked with CaCl2/MgCl2 (500/250 mM) solution to restore the physiological calcium and magnesium level in plasma was used as the positive control. Incubation was performed at 37 °C for 60 min. […] In order to ensure that the measured turbidity of the plasma is caused by fibrin formation, the fibrinogen and D-Dimer concentrations were additionally determined. During plasmatic clotting, the fibrinogen level decreases and the D-Dimer level in serum increases. Both were analyzed on a Sysmex CA560 with the corresponding reagents (Siemens Healthineers, Erlangen, Germany).
# platelets [3] = test: Platelet activation, platelet count in citrate anticoagulated PRP; type: cell-based, human; details: 128 μg/mL, 2 h, 37 °C, Sysmex analyzer, n = 3
# Experimental: (§2) Since it was observed that some AMPs are able to activate the plasmatic coagulation system of heparinized and citrate anticoagulated blood, the influence of this peptides on platelets was investigated. For this purpose, fresh heparinized and citrated blood were collected from three donors. The blood was centrifuged at 500 g for 5 min and platelet rich plasma (PRP) was obtained. The PRP was incubated at 37 °C for 2 h with 128 μg/mL AMP, PMB, and LL-37. PRP without any additives served as the control. After incubation, the platelet number was determined by a Sysmex Automated Hematology Analyzer KX-21-N (Kobe, Japan). In addition, the PRP samples were prepared for SEM to visualize the morphology of the thrombocytes. After incubation, 10 μL PRP were diluted with 990 μL PBS (0.01 M) and filtered through a 0.2 μm membrane (Membrane Filter Isopore 0.2 μm, Merck, Darmstadt, Germany). The platelets were retained on the membrane, washed with 1 mL PBS, and fixed with 1 mL glutaraldehyde solution (2.5% glutaraldehyde in physiological saline solution). After an incubation time of 60 min, the samples were dehydrated using a series of ethanol (30%, 50%, 60%, 70%, 80%, 90%, and 100%). Afterwards the samples were dried overnight at RT, sputtered with gold and visualized with a scanning electron microscope (FLEXSem 1000, Hitachi, Japan).
# platelets [4] = test: Platelet activation, platelet count in heparin anticoagulated PRP; type: cell-based, human; details: 128 μg/mL, 2 h, 37 °C, Sysmex analyzer, n = 3
# Experimental: as §2
# platelets [5] = test: SEM imaging of platelet morphology in PRP; type: cell-based, human; details: 128 μg/mL, 2 h, 37 °C
# Experimental: as §2
# human leukocytes = test: Cytotoxicity on leukocytes in whole blood, flow cytometry (7-AAD); type: cell-based; details: whole blood, 128 μg/mL, flow cytometry, n = 3
# Experimental: The measurement of the membrane destabilization of leukocytes by AMPs was carried out by flow cytometry. […] Whole blood without AMPs or antibiotics was used as a control. After incubation, the proportion of apoptotic and dead cells was determined by flow cytometry. To achieve this, blood samples were diluted 1:100 with 0.01 M phosphate buffered saline and centrifuged at 300 g for 10 min. The supernatant was removed, and cells were stained with 10 μL CD45 pacific blue (leukocyte marker; Beckman coulter, Brea, CA) and 10 μL 7-AAD (a marker for dead cells; Sigma-Aldrich, Steinheim, Germany) for 15 min at room temperature in the dark. After incubation, 1.8 mL lysis buffer (1:10 dilution in distilled water) was added, mixed, and incubated for 10 min at room temperature in the dark. This was followed by two washing steps (2300 g, 5 min, room temperature) and the cells were resuspended in a final volume of 200 μL 0.01 M PBS for measurement. Flow cytometry was performed using a Gallios flow cytometer (Beckman Coulter, Brea, CA, USA) equipped with 405 nm, 488 nm, and 638 nm lasers and the Kaluza Analysis Software (Beckman Coulter, Brea, CA, USA), which was used for measurement and data analysis. Blood cells which were incubated in 70% methanol before staining served as the positive control and blood cells without any additives were used as the negative control.
Molecule,"Minimal Inhibitory Concentration, E. coli, PBS (E. coli (ATCC 11303)) [µg/mL]","Minimal Inhibitory Concentration, S. aureus, PBS (S. aureus (ATCC 12600)) [µg/mL]","Free Hemoglobin, BLOOD, 8 μg/mL (erythrocyte membranes [1]) [mg/dL]","Free Hemoglobin, BLOOD, 32 μg/mL (erythrocyte membranes [1]) [mg/dL]","Free Hemoglobin, BLOOD, 128 μg/mL (erythrocyte membranes [1]) [mg/dL]","Free Hemoglobin, RBC in PBS, 8 μg/mL (erythrocyte membranes [2]) [mg/dL]","Free Hemoglobin, RBC in PBS, 32 μg/mL (erythrocyte membranes [2]) [mg/dL]",Reduction of the endotoxin activity in serum vs positive control (in words) (LPS from P. aeruginosa),Reduction of endotoxin activity of P. aeruginosa LPS (LPS from P. aeruginosa; 5 ng/mL LPS) [%],Peptide concentration that triggers clotting of citrate plasma (plasmatic coagulation) [µg/mL],Platelet count in citrate anticoagulated PRP vs control (in words) (platelets [3]),Platelet count in heparinized PRP vs control (in words) (platelets [4]),"Platelet morphology by SEM, citrate anticoagulated PRP (in words) (platelets [5])",Cytotoxic effect on leukocytes in whole blood (in words) (human leukocytes)
CCCCCCCC(=O)N[C@@H](Cc1ccccc1)C(=O)N[C@@H](Cc1c[nH]c2ccccc12)C(=O)N[C@@H](CCCNC(=N)N)C(=O)N[C@@H](CCCNC(=N)N)C(=O)N[C@@H](Cc1ccccc1)C(=O)N[C@@H](Cc1c[nH]c2ccccc12)C(=O)N[C@@H](CCCNC(=N)N)C(=O)N[C@@H](CCCNC(=N)N)C(N)=O [LF11-227-C8] (Octanoyl-FWRRFWRR-NH2),> 128,> 128,3.6 ± 2.8,10.5 ± 13.5,2.3 ± 3.7,13.0 ± 0.7,15.9 ± 2.6,,,,,,,
CCCCCCCCCC(=O)N[C@@H](Cc1ccccc1)C(=O)N[C@@H](Cc1c[nH]c2ccccc12)C(=O)N[C@@H](CCCNC(=N)N)C(=O)N[C@@H](CCCNC(=N)N)C(=O)N[C@@H](Cc1ccccc1)C(=O)N[C@@H](Cc1c[nH]c2ccccc12)C(=O)N[C@@H](CCCNC(=N)N)C(=O)N[C@@H](CCCNC(=N)N)C(N)=O [LF11-227-C10] (Decanoyl-FWRRFWRR-NH2),> 128,> 128,2.3 ± 0.6,4.2 ± 1.4,2.7 ± 4.2,18.0 ± 6.7,45.1 ± 20.5,,,,,,,
CCCCCCCCCCCC(=O)N[C@@H](Cc1ccccc1)C(=O)N[C@@H](Cc1c[nH]c2ccccc12)C(=O)N[C@@H](CCCNC(=N)N)C(=O)N[C@@H](CCCNC(=N)N)C(=O)N[C@@H](Cc1ccccc1)C(=O)N[C@@H](Cc1c[nH]c2ccccc12)C(=O)N[C@@H](CCCNC(=N)N)C(=O)N[C@@H](CCCNC(=N)N)C(N)=O [LF11-227-C12] (Lauroyl-FWRRFWRR-NH2),> 128,> 128,2.6 ± 1.4,4.3 ± 2.5,2.5 ± 3.6,11.6 ± 3.2,26.3 ± 12.3,significant (p < 0.05) reduction,,,,,,
CCCCCCCCCCCCCC(=O)N[C@@H](Cc1ccccc1)C(=O)N[C@@H](Cc1c[nH]c2ccccc12)C(=O)N[C@@H](CCCNC(=N)N)C(=O)N[C@@H](CCCNC(=N)N)C(=O)N[C@@H](Cc1ccccc1)C(=O)N[C@@H](Cc1c[nH]c2ccccc12)C(=O)N[C@@H](CCCNC(=N)N)C(=O)N[C@@H](CCCNC(=N)N)C(N)=O [LF11-227-C14] (Myristoyl-FWRRFWRR-NH2),> 128,> 128,3.4 ± 2.1,3.1 ± 0.9,2.6 ± 3.5,18.3 ± 12.8,41.9 ± 19.9,significant (p < 0.05) reduction,37 ± 5,,,,,
CCCCCCCC(=O)N1CCC[C@H]1C(=O)N[C@@H](Cc1ccccc1)C(=O)N[C@@H](Cc1c[nH]c2ccccc12)C(=O)N[C@@H](CCCNC(=N)N)C(=O)N[C@H](C(=O)N[C@@H](CCCNC(=N)N)C(=O)N[C@H](C(=O)N[C@@H](CCCNC(=N)N)C(=O)N[C@@H](CCCNC(=N)N)C(N)=O)[C@@H](C)CC)[C@@H](C)CC [LF11-322-C8] (Octanoyl-PFWRIRIRR-NH2),8,8,2.2 ± 0.5,9.0 ± 3.8,2.7 ± 3.7,12.9 ± 1.5,26.1 ± 2.5,,,≥ 256,,,,
CCCCCCCCCC(=O)N1CCC[C@H]1C(=O)N[C@@H](Cc1ccccc1)C(=O)N[C@@H](Cc1c[nH]c2ccccc12)C(=O)N[C@@H](CCCNC(=N)N)C(=O)N[C@H](C(=O)N[C@@H](CCCNC(=N)N)C(=O)N[C@H](C(=O)N[C@@H](CCCNC(=N)N)C(=O)N[C@@H](CCCNC(=N)N)C(N)=O)[C@@H](C)CC)[C@@H](C)CC [LF11-322-C10] (Decanoyl-PFWRIRIRR-NH2),8,8,2.5 ± 2.0,6.0 ± 4.6,3.0 ± 4.5,16.6 ± 2.4,48.5 ± 5.5,,,,,,,
CCCCCCCCCCCC(=O)N1CCC[C@H]1C(=O)N[C@@H](Cc1ccccc1)C(=O)N[C@@H](Cc1c[nH]c2ccccc12)C(=O)N[C@@H](CCCNC(=N)N)C(=O)N[C@H](C(=O)N[C@@H](CCCNC(=N)N)C(=O)N[C@H](C(=O)N[C@@H](CCCNC(=N)N)C(=O)N[C@@H](CCCNC(=N)N)C(N)=O)[C@@H](C)CC)[C@@H](C)CC [LF11-322-C12] (Lauroyl-PFWRIRIRR-NH2),32,16,2.4 ± 2.6,8.6 ± 8.6,3.2 ± 4.5,15.5 ± 1.2,36.1 ± 2.0,,,,significantly reduce the platelet count,no significant difference in platelet count,,
H-FWRRFWRR-NH2 [LF11-227-NH2],8,8,2.4 ± 3.1,9.5 ± 12.3,2.5 ± 3.8,10.0 ± 2.2,14.6 ± 3.2,,,,,,,
H-PFWRIRIRR-NH2 [LF11-322-NH2],4,4,5.0 ± 5.3,5.9 ± 4.4,2.6 ± 3.7,10.4 ± 2.4,14.2 ± 3.5,,,,,,strongly change their shape,no cytotoxic properties on leukocytes
